In ChEMBL document CHEMBL3885881, “DrugMatrix”:

Species: Rattus norvegicus
Test: DrugMatrix - Regimen: Daily Repeat
Format: toxicity, organism-based, Sprague-Dawley
Design: regimen Daily Repeat, gender Male, age 6-8 weeks
Conditions: in vivo, po, route oral GAVAGE, […]; for ABSOLUTE BASOPHIL / ABSOLUTE EOSINOPHIL / ABSOLUTE LYMPHOCYTE / ABSOLUTE MONOCYTE / ABSOLUTE SEGMENTED NEUTROPHIL / BASOPHIL / EOSINOPHIL / ERYTHROCYTE COUNT / HEMATOCRIT / HEMOGLOBIN / LEUKOCYTE COUNT / LYMPHOCYTE / MEAN CORPUSCULAR HEMOGLOBIN / MEAN CORPUSCULAR HEMOGLOBIN CONCENTRATION / MEAN CORPUSCULAR VOLUME / MONOCYTE / NEUTROPHIL / NUCLEATED RED BLOOD CELLS / PLATELET COUNT: tissue Blood; for ALANINE AMINOTRANSFERASE / ALBUMIN / ALKALINE PHOSPHATASE / ASPARTATE AMINOTRANSFERASE / BLOOD UREA NITROGEN / CARBON DIOXIDE / CHLORIDE / CHOLESTEROL / CREATINE PHOSPHOKINASE / CREATININE / GLUCOSE / LACTATE DEHYDROGENASE / LIPASE / PHOSPHORUS / POTASSIUM / SODIUM / TOTAL BILIRUBIN / TOTAL PROTEIN / URIC ACID: tissue Plasma
[1] = 1 mg/kg, 120 h, dose level Low, time 5 day
[2] = 9 mg/kg, 72 h, dose level High, time 3 day
[3] = 9 mg/kg, 120 h, dose level High, time 5 day

O=C(O)COC(=O)Cc1ccccc1Nc1c(Cl)cccc1Cl [ACECLOFENAC]
ABSOLUTE BASOPHIL [1]: 0 CELLS/uL | ABSOLUTE EOSINOPHIL [1]: 38.33 CELLS/uL | ABSOLUTE LYMPHOCYTE [1]: 9464 CELLS/uL | ABSOLUTE MONOCYTE [1]: 76.67 CELLS/uL | ABSOLUTE SEGMENTED NEUTROPHIL [1]: 854.33 CELLS/uL | BASOPHIL [1]: 0% | EOSINOPHIL [1]: 0.33% | ERYTHROCYTE COUNT [1]: 5.79 x10E6/uL | HEMATOCRIT [1]: 35.33% | HEMOGLOBIN [1]: 13.3 G/DL | LEUKOCYTE COUNT [1]: 10.43 x10E3/uL | LYMPHOCYTE [1]: 90.67% | MEAN CORPUSCULAR HEMOGLOBIN [1]: 23 pg | MEAN CORPUSCULAR HEMOGLOBIN CONCENTRATION [1]: 37.7 G/DL | MEAN CORPUSCULAR VOLUME [1]: 61.07 fL | MONOCYTE [1]: 0.67% | NEUTROPHIL [1]: 8.33% | NUCLEATED RED BLOOD CELLS [1]: 0 /100WBC | PLATELET COUNT [1]: 1057.67 x10E3/uL | ALANINE AMINOTRANSFERASE [1]: 60.67 u/L | ALBUMIN [1]: 4.07 G/DL | ALKALINE PHOSPHATASE [1]: 388 u/L | ASPARTATE AMINOTRANSFERASE [1]: 80.67 u/L | BLOOD UREA NITROGEN [1]: 14.33 mg/dL | CARBON DIOXIDE [1]: 30.33 mmol/L | CHLORIDE [1]: 101.33 MEQ/L | CHOLESTEROL [1]: 53.33 mg/dL | CREATINE PHOSPHOKINASE [1]: 180.67 u/L | CREATININE [1]: 0.15 mg/dL | GLUCOSE [1]: 160.67 mg/dL | LACTATE DEHYDROGENASE [1]: 106 u/L | LIPASE [1]: 9 u/L | PHOSPHORUS [1]: 9.9 mg/dL | POTASSIUM [1]: 5.17 MEQ/L | SODIUM [1]: 143 MEQ/L | TOTAL BILIRUBIN [1]: 0.23 mg/dL | TOTAL PROTEIN [1]: 5.8 G/DL | URIC ACID [1]: 0.83 mg/dL | ABSOLUTE BASOPHIL [2]: 0 CELLS/uL | ABSOLUTE EOSINOPHIL [2]: 21.67 CELLS/uL | ABSOLUTE LYMPHOCYTE [2]: 7429.67 CELLS/uL | ABSOLUTE MONOCYTE [2]: 92.33 CELLS/uL | ABSOLUTE SEGMENTED NEUTROPHIL [2]: 1189.67 CELLS/uL | BASOPHIL [2]: 0% | EOSINOPHIL [2]: 0.33% | ERYTHROCYTE COUNT [2]: 5.12 x10E6/uL | HEMATOCRIT [2]: 32.1% | HEMOGLOBIN [2]: 12.63 G/DL | LEUKOCYTE COUNT [2]: 8.73 x10E3/uL | LYMPHOCYTE [2]: 84.67% | MEAN CORPUSCULAR HEMOGLOBIN [2]: 24.73 pg | MEAN CORPUSCULAR HEMOGLOBIN CONCENTRATION [2]: 39.37 G/DL | MEAN CORPUSCULAR VOLUME [2]: 62.73 fL | MONOCYTE [2]: 1.33% | NEUTROPHIL [2]: 13.67% | NUCLEATED RED BLOOD CELLS [2]: 0 /100WBC | PLATELET COUNT [2]: 823.33 x10E3/uL | ALANINE AMINOTRANSFERASE [2]: 57 u/L | ALBUMIN [2]: 3.37 G/DL | ALKALINE PHOSPHATASE [2]: 253 u/L | ASPARTATE AMINOTRANSFERASE [2]: 77.33 u/L | BLOOD UREA NITROGEN [2]: 10.67 mg/dL | CARBON DIOXIDE [2]: 34 mmol/L | CHLORIDE [2]: 99 MEQ/L | CHOLESTEROL [2]: 73.67 mg/dL | CREATINE PHOSPHOKINASE [2]: 625.67 u/L | CREATININE [2]: 0.12 mg/dL | GLUCOSE [2]: 160.67 mg/dL | LACTATE DEHYDROGENASE [2]: 163.33 u/L | LIPASE [2]: 8.67 u/L | PHOSPHORUS [2]: 11.57 mg/dL | POTASSIUM [2]: 6.06 MEQ/L | SODIUM [2]: 143.37 MEQ/L | TOTAL BILIRUBIN [2]: 0.13 mg/dL | TOTAL PROTEIN [2]: 5.3 G/DL | URIC ACID [2]: 1.03 mg/dL | ABSOLUTE BASOPHIL [3]: 0 CELLS/uL | ABSOLUTE EOSINOPHIL [3]: 0 CELLS/uL | ABSOLUTE LYMPHOCYTE [3]: 9903.33 CELLS/uL | ABSOLUTE MONOCYTE [3]: 435.33 CELLS/uL | ABSOLUTE SEGMENTED NEUTROPHIL [3]: 2861.33 CELLS/uL | BASOPHIL [3]: 0% | EOSINOPHIL [3]: 0% | ERYTHROCYTE COUNT [3]: 4.91 x10E6/uL | HEMATOCRIT [3]: 29.6% | HEMOGLOBIN [3]: 11.33 G/DL | LEUKOCYTE COUNT [3]: 13.2 x10E3/uL | LYMPHOCYTE [3]: 75.33% | MEAN CORPUSCULAR HEMOGLOBIN [3]: 23.1 pg | MEAN CORPUSCULAR HEMOGLOBIN CONCENTRATION [3]: 38.33 G/DL | MEAN CORPUSCULAR VOLUME [3]: 60.27 fL | MONOCYTE [3]: 3.33% | NEUTROPHIL [3]: 21.33% | NUCLEATED RED BLOOD CELLS [3]: 0.33 /100WBC | PLATELET COUNT [3]: 1272 x10E3/uL | ALANINE AMINOTRANSFERASE [3]: 58.33 u/L | ALBUMIN [3]: 3.03 G/DL | ALKALINE PHOSPHATASE [3]: 312 u/L | ASPARTATE AMINOTRANSFERASE [3]: 78.33 u/L | BLOOD UREA NITROGEN [3]: 12 mg/dL | CARBON DIOXIDE [3]: 28.33 mmol/L | CHLORIDE [3]: 101.67 MEQ/L | CHOLESTEROL [3]: 58.33 mg/dL | CREATINE PHOSPHOKINASE [3]: 296.67 u/L | CREATININE [3]: 0.2 mg/dL | GLUCOSE [3]: 165 mg/dL | LACTATE DEHYDROGENASE [3]: 151 u/L | LIPASE [3]: 10 u/L | PHOSPHORUS [3]: 10.13 mg/dL | POTASSIUM [3]: 5.79 MEQ/L | SODIUM [3]: 144.97 MEQ/L | TOTAL BILIRUBIN [3]: 0.13 mg/dL | TOTAL PROTEIN [3]: 5.03 G/DL | URIC ACID [3]: 1.1 mg/dL
